Source: patent publication US20070161697A1, “Hydrazide type compounds and the use thereof in pharmaceutical compositions for the treatment of cardiovascular diseases” (priority 2004, published 2007)
Where a name gives a salt, the structure may show the parent alone. Read-outs that look alike come from different tables or passages of the source.

How the values were obtained:
THP1 cells [1] = assay: Inhibition of binding and accumulation of cyanine 3-marked LDLox as lipid vesicles in differentiated THP1 macrophage cells; assay type: cell-based; details: Homo sapiens, 2.5 μM
Method: The culture medium may be replaced every two days.
In the present example, the accumulation of lipid vesicles within the cell was measured using THP1 cells following fixation with paraformaldehyde in PBS medium using a solution containing a fluorescent marker of the Oil Red O type in order to visualise the vesicles. The image of the cells rich in vesicles was analysed using a microscope ecqluipped with a CCD camera and software necessary for the analysis.
The medium was replaced every 2-3 days.
The differentiated THP-1 were subsequently incubated with LDLox coupled with cyanine-3 (1.5 μg/ml) in the presence or absence of the molecule CGP02-01 (concentrations of between 10^−5M and 3.1.6 10^−10M) for 24 hours at 37° C., 5% CO2. […] Each image was analysed and quantified with the MetaMorph software (Universal Imaging).

THP1 cells [2] = assay: as above; assay type: cell-based; details: 3 μg/ml oxLDL-cyanine 3, 25 hours, different concentrations, FIG. 7
Wistar rats [3] = assay: Insulin in plasma, rats on dietary regimen rich in fructose; assay type: in vivo; details: 50 mg/kg oral
Method: Secondly, the activity of the compound CGP 02-01 was studied using a reference rat-fructose model. Groups of Wistar rats (n=12) were subjected for 3 weeks to a dietary regimen containing […] of fructose. […] Groups of rats subsequently received by forced feeding 50 mg/kg of the compound CGP 02-01 dissolved in a 2% tween solution prepared in methylcellulose. The blood samples for the biochemical analyses were performed after 1, 2 and 3 weeks. Independent groups of rats wee treated under the same conditions with metformin hydrochloride at a dose of 50 mg/kg. The metformin served as a reference in this metabolic syndrome model. Assay of insulin in plasma may be performed by radioimmunological assay using commercially available kits comprising specific anti-insulin antibodies of mice or rats. One may for example use the rat/mouse ELISA kits, Linco research (ref. EZRMI-13K).

Wistar rats [4] = assay: Total cholesterol in plasma, rats on dietary regimen rich in fructose; assay type: in vivo; details: 50 mg/kg oral, 3 weeks of treatment
Method: Secondly, the activity of the compound CGP 02-01 was studied using a reference rat-fructose model. Groups of Wistar rats (n=12) were subjected for 3 weeks to a dietary regimen containing […] of fructose. Under these conditions, the rats develop a metabolic syndrome comprising hyperglycaemia, hyperinsulinaemia, hypercholesterolaemia and hypertriglyceridaemia. Groups of rats subsequently received by forced feeding 50 mg/kg of the compound CGP 02-01 dissolved in a 2% tween solution prepared in methylcellulose. The blood samples for the biochemical analyses were performed after 1, 2 and 3 weeks. Independent groups of rats wee treated under the same conditions with metformin hydrochloride at a dose of 50 mg/kg. The metformin served as a reference in this metabolic syndrome model. The circulating total cholesterol may be measured by enzymatic assay using the commercially available kit. This assay may for example use an enzymatic sequence of the cholesterol-esterase/cholesteroloxydase/chromogenic peroxidase type. In summary, the total esterified cholesterol is transformed into free cholesterol and fatty acid by the action of cholesterol esterase. The non-esterified cholesterol is subsequently measured by the formation of quinoeimine in the presence of cholesterol oxidase and peroxidise. The intensity of the quinoneimine coloration is proportional to the quantity of cholesterol present in the sample.

Wistar rats [5] = assay: Circulating triglycerides, rats on dietary regimen rich in fructose; assay type: in vivo; details: oral
Method: Secondly, the activity of the compound CGP 02-01 was studied using a reference rat-fructose model. Groups of Wistar rats (n=12) were subjected for 3 weeks to a dietary regimen containing […] of fructose. […] Groups of rats subsequently received by forced feeding 50 mg/kg of the compound CGP 02-01 dissolved in a 2% tween solution prepared in methylcellulose. The blood samples for the biochemical analyses were performed after 1, 2 and 3 weeks. Independent groups of rats wee treated under the same conditions with metformin hydrochloride at a dose of 50 mg/kg. The metformin served as a reference in this metabolic syndrome model. Assay of serum triglycerides may be performed enzymatically using the commercially available kit. One may use kits from Biomérieux for example (ref. 61.238). In summary, the triglycerides are treated with a lipase in order to generate fatty acids. In the presence of ATP, the glycerol is transformed by glycerokinase into glycerol 3 phosphate. The glycerol 3 phosphate is subsequently transformed into dihydroxyacetone in generating oxygenated water (H202) which may be detected by formation of quinoneimine in the presence of parachlorophenol, amino-4-antipyrin and peroxidase. The intensity of the quinoneimine coloration is subsequently measured at 505 nm. This coloration is proportional to the quantity of triglycerides present in the sample.

[6] = THP-1, cells expressing the scavenger CD36, lipoproteins marked with cyanine 3, read-out: Inhibition of accumulation of LDLox in (%)
[7] = THP-1 cells, 24 hours, read-out: Inhibition at 2.5 μM on THP-1 cells (24 hours)

## COc1cc(O)c(/C=N/NC(=O)C=Cc2ccco2)c(OC)c1 (stereo in doubt) [CGP02-02, (2Z)-3-(2-furyl)-N′-[(1E)-(2-hydroxy-4,6-dimethoxyphenyl)methylene] acrylohydrazide]
THP1 cells [1]; [6]
  inhibition at 2.5 µM: 64%
THP1 cells [1]; [7]
  inhibition at 2.5 µM: 64%
THP1 cells [2]
  Inhibition of formation of foamy cells: inhibition of formation of foamy cells

## COc1cc(O)c(/C=N/NC(=O)c2ccc(C)s2)c(OC)c1 [CGP02-03, N′-[(1E)-(2-hydroxy-4,6-dimethoxyphenyl)methylene]-5-methylthiophene-2-carbohydrazide]
THP1 cells [1]; [6]
  inhibition at 2.5 µM: 82%
THP1 cells [1]; [7]
  inhibition at 2.5 µM: 82%
THP1 cells [2]
  Inhibition of formation of foamy cells: inhibition of formation of foamy cells

## COc1cc(O)c(/C=N/NC(=O)c2ccc(N(C)C)cc2)c(OC)c1 [CGP02-04]
THP1 cells [1]; [6]
  inhibition at 2.5 µM: 61%
THP1 cells [1]; [7]
  inhibition at 2.5 µM: 61%

## COc1cc(O)c(/C=N/NC(=O)c2ccccc2CCc2ccccc2)c(OC)c1 [CGP02-05, 2-phenethylbenzoic acid (2-hydroxy-4,6-dimethoxy-benzylidene)-hydrazide]
THP1 cells [1]; [6]
  inhibition at 2.5 µM: 77%
THP1 cells [1]; [7]
  inhibition at 2.5 µM: 77%

## CCC(=O)Nc1cccc(C(=O)N/N=C/c2c(O)cc(OC)cc2OC)c1 [CGP02-06]
THP1 cells [1]; [6]
  inhibition at 2.5 µM: 71%
THP1 cells [1]; [7]
  inhibition at 2.5 µM: 71%

## COc1cc(O)c(/C=N/NC(=O)c2ccco2)c(OC)c1 [CGP02-07, 2-furancarboxylic acid (2-hydroxy-4,6-dimethoxy-benzylidene)-hydrazide]
THP1 cells [1]; [6]
  inhibition at 2.5 µM: 63%
THP1 cells [1]; [7]
  inhibition at 2.5 µM: 63%

## COc1cc(O)c(/C=N/NC(=O)Cc2c[nH]c3ccccc23)c(OC)c1 [CGP02-08, (1H-indol-3-yl) acetic acid (2-hydroxy-4,6-dimethoxybenzylidene)-hydrazide]
THP1 cells [1]; [6]
  inhibition at 2.5 µM: 58%
THP1 cells [1]; [7]
  inhibition at 2.5 µM: 58%

## COc1cc(O)c(/C=N/NC(=O)CC2Sc3ccccc3NC2=O)c(OC)c1 (centres unmarked) [CGP02-10]
THP1 cells [1]; [6]
  inhibition at 2.5 µM: 52%
THP1 cells [1]; [7]
  inhibition at 2.5 µM: 52%

## COc1cc(O)c(/C=N/NC(=O)c2ccccc2Oc2ccccc2)c(OC)c1 [CGP02-11, 2-phenoxy-benzoic acid (2-hydroxy-4,6-dimethoxybenzylidene)-hydrazide]
THP1 cells [1]; [6]
  inhibition at 2.5 µM: 44%
THP1 cells [1]; [7]
  inhibition at 2.5 µM: 44%

## Cc1nn(-c2ccccc2)c(C)c1/C=N/NC(=O)c1ccc([N+](=O)[O-])o1 [CGP02-12]
THP1 cells [1]; [6]
  inhibition at 2.5 µM: 43%
THP1 cells [1]; [7]
  inhibition at 2.5 µM: 43%

## COc1cc(O)c(/C=N/NC(=O)c2c(F)cccc2F)c(OC)c1 [CGP02-13, 2,6-difluorobenzoic acid (2-hydroxy-4,6-dimethoxybenzylidene)-hydrazide]
THP1 cells [1]; [6]
  inhibition at 2.5 µM: 68%
THP1 cells [1]; [7]
  inhibition at 2.5 µM: 68%

## COc1cc(O)c(/C=N/NC(=O)c2ccc(C(F)(F)F)cc2)c(OC)c1 [CGP02-16, 4-trifluoromethylbenzoic acid (2-hydroxy-4,6-dimethoxy-benzylidene)-hydrazide]
THP1 cells [1]; [6]
  inhibition at 2.5 µM: 77%
THP1 cells [1]; [7]
  inhibition at 2.5 µM: 77%

## CCN(CC)c1ccc(/C=N/NC(=O)c2ccc(OC)c(OC)c2)c(O)c1 [CGP02-17, 3,4-dimethoxybenzoic acid (4-diethylamino-2-hydroxy-benzylidene)-hydrazide]
THP1 cells [1]; [6]
  inhibition at 2.5 µM: 88%
THP1 cells [1]; [7]
  inhibition at 2.5 µM: 88%

## O=C(N/N=C/c1cc(Br)cc(Br)c1O)c1cc2ccccc2s1 [CGP02-18, benzo[b]thiophene-2-carboxylic acid (3,5-dibromo-2-hydroxy-benzylidene)-hydrazide]
THP1 cells [1]; [6]
  inhibition at 2.5 µM: 78%
THP1 cells [1]; [7]
  inhibition at 2.5 µM: 78%

## CN(C)C(=N)N=C(N)N [Metformin, metformin hydrochloride, reference compound]
Wistar rats [3]
  Variation (reduction) of insulin level: 16.2%
Wistar rats [4]
  Reduction in total cholesterol: 16%
Wistar rats [4]; control 0.79±0.05
  Plasma total cholesterol level: 0.66 ± 0.02 g/L
Wistar rats [5]; 50 mg/kg, 3 weeks, control 1.39±0.13
  Plasma triglyceride level: 1.21 ± 0.08 g/L
Wistar rats [5]; same conditions
  Effect on plasma triglyceride level: does not have any effect
